Results reported in patent publication US5834244A, “Factor VIIa inhibitors from Kunitz domain proteins” (Genentech, Inc., priority 1995, dated 1998).
Where two headings read alike, the source gives them in different places. Positions of bridges follow the written chain, without caps; N, C: chain ends. No end group written: not given here.

Assays:
[1] = tested on: Male New Zealand white rabbits; test: Cuticle bleeding time assay; format: in vivo, rabbit; details: for bleeding compared to the saline control (in words): after 10 minutes
Procedure: (§1) Male New Zealand white rabbits (~4 kg) were anesthetized to surgical anesthesia plane with an IM injection of Ketamine / Xylaxine. The rabbits were placed supine on a restraining board, warmed to 37° C., and the neck and inner thigh area shaved. Teflon catheters were replaced in a marginal ear vein and femoral artery for drug delivery and sample collection respectively. Prior to treatment, blood samples were collected for coagulation tests (APTT and PT). Bleeding time was assessed from a cut made in the cuticle portion of a hind limb nail. Incisions were made in the neck region and the entire left common carotid artery and its branches were surgically isolated. An ultrasonic flow probe (Transonics®) was placed on the common carotid approximately 5 cm caudal to the common--internal bifurcation. After blood flow reached a stable baseline, drugs (saline or test compounds) were delivered via the marginal ear vein. A deflated embolectomy catheter (Fogarty®, 3F) was then introduced into the lumen of the common via an incision in the lingual branch. Blood flow through the artery was stopped briefly while the catheter was introduced and loosely secured with 2-0 silk tie at the incision site. After the catheter was in place and secure, blood flow was restored. The deflated balloon was advanced to within 2 mm of the flow probe and inflated with saline until resistance of the vessel wall was felt. The catheter was pulled back with a steady motion to the first branch and then deflated. This procedure was repeated a total of six times for each experimental animal, after which the catheter was removed. […] Over 40 minutes, blood samples were taken for APTT and PT measurements, cuticle bleeding times were assessed and blood flow through the carotid monitored. Duration of patency was defined as the total amount of time (maximum=40 minutes) that any measurable blood flow is detected in the artery. Patency rate refers to the percentage of animals tested who had carotid artery blood flow ≥5 minutes. At the end of the experiment the rabbit was euthanized and the carotid artery removed and opened. If any thrombus was present, it was removed, blotted and the weight recorded.
Table 3 below describes the results of the cuticle bleeding time assay at 10 minutes after dosing.

[2] = tested on: Male New Zealand white rabbits; test: Rabbit deep medial injury model (carotid artery patency, thrombus weight); format: in vivo; details: for Clot (mps) / Duration (Min.) of patency: mean ± sem
Procedure: as §1

normal human plasma = test: Activated partial thromboplastin time (APTT) assay, initiated by ellagic acid; format: biochemical
Procedure: For the activated partial thromboplastin time (APTT) assays, the activation time was set at 120 sec and acquisition time at 300 to 600 sec depending on the expected outcome of the assay. Citrated normal human plasma and inhibitor were incubated together. The sample (plasma and inhibitor) and activator (Instrumentation Laboratories Ellagic acid/Phospholipid mix Test Reagent) were automatically pipetted and incubated together for 2 min at 37° C., then CaCl2 was added and clotting time determined by means of optical assessment. The total incubation time of inhibitor with plasma was ca. 3 min before addition of activator, and 5 min before addition of CaCl2.

rabbit plasma [3] = test: PT clotting time in rabbit plasma; format: biochemical; details: 40 μM
Procedure: (§2) Samples of rabbit plasma were assayed using an MLA 800 coagulometer and Dade reagents. Actin FS® was the activator in the APTT assay. Rabbit Thromboplastin with Ca++ was used for the PT assays; the rabbit thromboplastin was diluted two-fold. All mutant inhibitors tested prolonged clotting by at least one fold. […] A greater than 10 fold prolongation of the clotting time at 40μM was observed.

rabbit plasma [4] = test: APTT clotting time in rabbit plasma; format: biochemical; details: 40 μM
Procedure: as §2

TF-FVIIa = target: T1, TF-FVIIa (Homo sapiens, UniProt P08709); test: Enzyme inhibition assay, apparent equilibrium dissociation constant (Ki*) with TF-FVIIa; format: biochemical
T1 construct: is generated by proteolysis of a single peptide bond from its zymogen Factor VII (FVII); purchased Haematologic Technologies Inc. (FVIIa); TF1-243 made in house in E. coli; host or cells: E. coli (TF1-243)
Procedure: Aliquots (25 μL) from each well of a microtiter plate containing the serially diluted inhibitors were transferred into new microtiter plates, each containing a different protease (100 μL) in the appropriate buffer. The proteases tested (protease concentration, buffer, substrate) were FVIIa (10 nM, Buffer A, 0.7 mM S2366), FXIa (1.0 nM, Buffer B containing 1 mg/ml BSA, 0.7 mM S2366), plasma kallikrein (3.5 nM, Buffer B, 0.5 mM S2302), and plasmin (15 nM, Buffer B, 1 mM S2251).

[5] = Heparin 1: 25 u/kg bolus then 0.5 u/kg/min infusion
[6] = Heparin 2: 25 u/kg bolus then 1 u/kg/min infusion

T1 sequence (P08709 213-466 limits assumed): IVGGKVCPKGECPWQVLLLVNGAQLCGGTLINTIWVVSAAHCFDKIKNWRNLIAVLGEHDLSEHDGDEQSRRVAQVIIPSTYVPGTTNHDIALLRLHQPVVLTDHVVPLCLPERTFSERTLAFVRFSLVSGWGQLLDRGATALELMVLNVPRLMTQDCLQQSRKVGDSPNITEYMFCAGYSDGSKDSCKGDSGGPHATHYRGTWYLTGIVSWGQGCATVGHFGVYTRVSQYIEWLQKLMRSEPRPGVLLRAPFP
T1 sequence (P08709 61-212 limits assumed): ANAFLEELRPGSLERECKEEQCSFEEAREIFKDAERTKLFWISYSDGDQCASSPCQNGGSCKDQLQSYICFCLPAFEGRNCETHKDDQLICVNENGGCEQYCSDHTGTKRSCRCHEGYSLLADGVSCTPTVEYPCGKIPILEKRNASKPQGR
T1 sequence (P13726 33-275 partner limits assumed): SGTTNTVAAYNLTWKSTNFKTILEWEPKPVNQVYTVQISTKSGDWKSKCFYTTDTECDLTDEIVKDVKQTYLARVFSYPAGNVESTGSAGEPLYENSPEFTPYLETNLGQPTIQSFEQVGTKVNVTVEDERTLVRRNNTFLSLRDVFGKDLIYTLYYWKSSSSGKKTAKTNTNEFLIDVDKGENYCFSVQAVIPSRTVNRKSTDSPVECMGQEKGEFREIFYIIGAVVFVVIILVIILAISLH

Compound: Heparin
- Cuticle bleeding time, fold increase over pre dose ([1]; rabbit, in vivo): 1.7 ± 0.4 fold
- Patency (%) [2, 5]: 67%
- Clot (mps) [2, 5]: 13.6 ± 4.7 mps
- Duration (Min.) of patency [2, 5]: 23.3 ± 6.7 min
- Patency (%) [2, 6]: 100%
- Clot (mps) [2, 6]: 19.1 ± 8.5 mps
- Duration (Min.) of patency [2, 6]: 35.2 ± 2.2 min
- patency and clot size compared to the saline control (in words) ([2]; rabbit, in vivo): significantly prolonged patency and reduced clot size

Compound: VREVCSEQAEPGPCRAMMKRWYFDVTEGKCAPFIYGGCYGNRNNFDTEEYCAAVCGSA (disulfide 5-55, 14-38, 30-51) [IV-49C]
- Cuticle bleeding time, fold increase over pre dose ([1]; 10 minutes after dosing, 2 mg/kg IV bolus): 1.0 ± 1.0 fold
- bleeding compared to the saline control (in words) [1]: did not induce prolonged bleeding

Compound: CC[C@H](C)[C@@H]1NC(=O)[C@H](CC(C)C)NC(=O)[C@H](C)NC(=O)[C@H](CCCNC(=N)N)NC(=O)[C@@H]2CSSC[C@@H]3NC(=O)CNC(=O)CNC(=O)[C@H](Cc4ccc(O)cc4)NC(=O)[C@H](Cc4ccccc4)NC(=O)[C@H](Cc4ccccc4)NC(=O)[C@@H]4CCCN4C(=O)[C@H](C)NC(=O)[C@H](CSSC[C@H](NC(=O)[C@H](Cc4ccc(O)cc4)NC(=O)[C@H](CCC(=O)O)NC(=O)[C@H](CCC(=O)O)NC(=O)[C@H]([C@@H](C)O)NC(=O)[C@H](CC(=O)O)NC(=O)[C@H](Cc4ccccc4)NC(=O)[C@H](CC(N)=O)NC(=O)[C@H](CC(N)=O)NC(=O)[C@H](CCCNC(=N)N)NC(=O)[C@H](CC(N)=O)NC(=O)CNC(=O)[C@H](Cc4ccc(O)cc4)NC3=O)C(=O)N[C@@H](C)C(=O)N[C@@H](C)C(=O)N[C@@H](C(C)C)C(=O)N[C@H](C(=O)NCC(=O)N[C@@H](CO)C(=O)N[C@@H](C)C(=O)O)CSSC[C@H](NC(=O)[C@@H](NC(=O)[C@H](CCC(=O)O)NC(=O)[C@H](CCCNC(=N)N)NC(=O)[C@@H](N)C(C)C)C(C)C)C(=O)N[C@@H](CO)C(=O)N[C@@H](CCC(=O)O)C(=O)N[C@@H](CCC(N)=O)C(=O)N[C@@H](C)C(=O)N[C@@H](CCC(=O)O)C(=O)N3CCC[C@H]3C(=O)NCC(=O)N3CCC[C@H]3C(=O)N2)NC(=O)[C@H](CCCCN)NC(=O)CNC(=O)[C@H](CCC(=O)O)NC(=O)[C@H]([C@@H](C)O)NC(=O)[C@H](C(C)C)NC(=O)[C@H](CC(=O)O)NC(=O)[C@H](Cc2ccccc2)NC(=O)[C@H](Cc2ccc(O)cc2)NC(=O)[C@H](Cc2c[nH]c3ccccc23)NC(=O)[C@H](CCCNC(=N)N)NC(=O)[C@H](CC(C)C)NC1=O [TF7I-C]
- bleeding compared to the saline control (in words) [1]: did not induce prolonged bleeding

Compound: APPI: Alzheimer's amyloid β-protein precursor inhibitor, wild type Kunitz domain (58 residues, SEQ ID NO: 34) (VREVCSEQAETGPCRAMISRWYFDVTEGKCAPFFYGGCGGNRNNFDTEEYCMAVCGSA)
- APTT clotting time, fold prolongation (normal human plasma; 40 μM inhibitor, uninhibited 31 s): 3.6 fold
- APTT clotting time, fold prolongation (normal human plasma; ca. 7 μM inhibitor): ca. 3 fold
- Cuticle bleeding time, fold increase over pre dose ([1]; rabbit, in vivo, iv, 2 mg/kg): 2.2 ± 0.6 fold
- PT, fold increase over baseline (rabbit plasma [3]): 1.4 fold
- APTT, fold increase over baseline (rabbit plasma [4]): 4.9 fold
- Patency (%) ([2]; 2 mg/kg IV bolus, animals with carotid blood flow ≥5 minutes): 40%
- Duration (Min.) of patency ([2]; 2 mg/kg IV bolus, maximum 40 minutes): 13.4 ± 8.5 min
- Clot (mps) ([2]; 2 mg/kg IV bolus, thrombus weight): 49.5 ± 18.2 mps
- inhibition of TF-FVIIa (in words) (TF-FVIIa): moderate inhibitor
- Ki (TF-FVIIa; FVIIa 10 nM and TF1-243 50 nM, representative of nine (TF7I-C) and seven (APPI) determinations, read-out: Ki* with TF-FVIIa (FIG. 5, representative determination)): 0.3 µM
- Ki (TF-FVIIa; FVIIa 10 nM, TF1-243, S2366, pH 7.5, read-out: apparent equilibrium dissociation constant Ki* with TF-FVIIa): 0.301 ± 0.044 µM
